Assay results from BindingDB's records for doi:10.1016/S0960-894X(03)00095-7 (Abbott Laboratories, 2003).

Assays:
[1] = biological target: Protein farnesyltransferase subunit beta/geranylgeranyltransferase type-1 subunit alpha (Bos taurus, UniProt P29702+P49355); assay: FTase Activity Assay; details: pH 7.5; 37 °C
Procedure: The in vitro activity of compounds inhibiting FTase was determined by measuring the transfer of [3H]-FPP to substrate Ha-Ras-CVLS. The incorporated radioactivity was quantified by scintillation counting.

[2] = biological target: Geranylgeranyl transferase type-1 subunit beta/Protein farnesyltransferase/geranylgeranyltransferase type-1 subunit alpha (Bos taurus, UniProt P29702+Q5EAD5); assay: GGTase-I Activity Assay; details: pH 7.5; 37 °C
Procedure: The in vitro activity of compounds inhibiting GGTase-1 was determined by measuring the transfer of [3H]-geranylgeranylpyrophosphate to substrate Ha-Ras-CVLL. The incorporated radioactivity was quantified by scintillation counting.

IC50 [1]: 0.00092 µM
IC50 [2]: 1.6 µM
Structure (SMILES): CN(Cc1ccc(C#N)cc1)[C@H](Cc1cncn1C)C(=O)N1CCC(C#N)=C(c2cccc3ccccc23)C1 [1-[(2R)-2-{[(4-cyanophenyl)methyl](methyl)amino}-3-(1-methyl-1H-imidazol-5-yl)propanoyl]-5-(naphthalen-1-yl)-1,2,3,6-tetrahydropyridine-4-carbonitrile]
